What was measured:
CARM1 = molecular target: T1, CARM1 (Homo sapiens, UniProt Q86X55); assay: CARM1 histone methyltransferase (biochemical) assay
T1 construct: FLAG-CARM1 (amino acids 2–585)-His for biochemical studies was expressed in 293 F mammalian cells; made in house; host or cells: 293F mammalian cells
T1 sequence (Q86X55 2-585 isoform Q86X55-1): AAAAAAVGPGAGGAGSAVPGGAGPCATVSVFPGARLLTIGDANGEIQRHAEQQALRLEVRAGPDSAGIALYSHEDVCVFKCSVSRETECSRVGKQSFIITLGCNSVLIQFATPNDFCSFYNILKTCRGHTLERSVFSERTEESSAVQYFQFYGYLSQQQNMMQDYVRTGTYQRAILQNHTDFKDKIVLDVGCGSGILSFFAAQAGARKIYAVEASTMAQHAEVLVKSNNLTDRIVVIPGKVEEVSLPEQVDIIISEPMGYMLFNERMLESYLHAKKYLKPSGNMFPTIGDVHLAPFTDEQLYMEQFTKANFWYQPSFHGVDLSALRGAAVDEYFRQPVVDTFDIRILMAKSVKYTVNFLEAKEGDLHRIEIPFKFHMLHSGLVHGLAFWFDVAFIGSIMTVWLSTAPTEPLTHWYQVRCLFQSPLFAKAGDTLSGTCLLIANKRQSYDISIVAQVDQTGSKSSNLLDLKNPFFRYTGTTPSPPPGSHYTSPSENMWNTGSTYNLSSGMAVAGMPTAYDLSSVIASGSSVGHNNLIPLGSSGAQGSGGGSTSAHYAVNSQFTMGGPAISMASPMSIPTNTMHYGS
Protocol: CARM1 activity was measured as previously reported for the histone methyltransferases PRMT1/6/8[65] and PRMT5[58]. Briefly, CARM1 was preincubated with compounds for 30 minutes at room temperature before reactions were initiated. […] The assays were quenched by the addition of 300 μM unlabeled SAM. The quantity of ^3H-labeled peptide produced was measured by Flashplate on a Topcount reader. Further details can be found in the Supplementary Methods.
Histone methyltransferase assay
The compounds were preincubated with CARM1 for 30 minutes at room temperature before the reactions were initiated by the addition of substrates. […]
containing 20 mM bicine, 1 mM tris(2-carbox yethyl)phosphine, 0.005% bovine skin gelatin and 0.002% Tween-20, pH 7.5 and 2% DMSO. The peptide sequence was biotin-aminohexanoate- […]
eKS AP-amide, where RMe is a monomethylated arginine residue (21st
Century Biochemicals, Marlboro, MA). After 2 hours, assa ys were quenched b y the addition of 300 μM unlabeled SAM. The reactions were tran sferred to a 384-well Flashplate (Perkin Elmer) and the biotinylated peptides were allowed to bind to the streptavidin surface for at least 1 hour before being washed once with 0.1% Tween 20. The quantit y of 3H-labeled peptide bound to the Flashplate surface was counted on a Topcount reader as counts per minute (cpm). % Inhibition values wer e calculated and IC50 values were fit using the 3 -param eter IC50 equation below:
YY = BBBBBBBBBBBB + (100 − BBBBBBBBBBBB )HHHHHHHH CCCCCCCCCCHHCCHHCCCCCC where top is fixed at 100 or the maximum inhibition plateau , Y is % inhibition and X is […]
IC50 vs [peptide] data were fit to the noncom petitive Cheng- Prusoff […]
The effect of reaction time on compound potency was determined b y meas uring IC50 values from […]
to a one phase exponential deca y equation. […]
activity was measured under standard conditions after a 30 minute preincubation.
IC 50 values were d etermi ned and data wer e anal yz ed using the following eq uation: […]

[1] = molecular target: T2, rat recombinant kappa-opioid (KOP) receptor (Rattus norvegicus, UniProt P34975); assay: kappa-opioid (KOP) receptor binding assay
T2 construct: purchased CEREP, Redmond, WA (ExpresSProfile screen)
T2 sequence (P34975 whole entry): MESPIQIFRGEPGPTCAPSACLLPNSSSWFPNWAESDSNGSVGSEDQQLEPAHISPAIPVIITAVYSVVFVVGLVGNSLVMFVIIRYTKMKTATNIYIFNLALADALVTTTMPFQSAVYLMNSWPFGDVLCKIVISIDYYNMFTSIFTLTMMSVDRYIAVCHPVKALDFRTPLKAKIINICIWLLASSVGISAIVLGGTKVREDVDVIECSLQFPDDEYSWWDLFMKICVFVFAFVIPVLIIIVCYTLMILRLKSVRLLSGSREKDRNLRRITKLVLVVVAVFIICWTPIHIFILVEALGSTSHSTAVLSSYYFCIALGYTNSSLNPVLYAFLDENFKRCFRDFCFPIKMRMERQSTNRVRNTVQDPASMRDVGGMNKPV
Excerpt: […]. […] […]. […] […].

RPMI-8226 xenograft = assay: RPMI-8226 multiple myeloma xenograft study; format: in vivo, CB-17 SCID mice
Protocol: For the in vivo efficacy studies, there were 8 mice per dose group and each mouse was inoculated subcutaneously at the right flank. All cells were suspended in a 0.2 mL mixture of base media and Matrigel at 1:1 for tumor development. RPMI-8226 cells were inoculated at 5 × 10^6 cells/mouse and treatment began when the mean tumor sizes reached 120 mm^3 (28 days post-inoculation). CB-17 SCID Mice were assigned into groups using a randomized block design. […] Body weights were measured twice a week for the duration of the study. Tumor size was measured twice weekly in two dimensions using a caliper, and the volume was expressed in cubic millimeters. Animals were euthanized 3 hours post-final dose, with blood and tissues collected for analysis.

CYP3A4 = molecular target: T3, CYP3A4 (Homo sapiens, UniProt P08684); assay: Cytochrome P450 inhibition; format: in vitro ADME; settings: human liver microsomes, tested up to 25 µM
T3 construct: with human liver microsomes; from tissue; host or cells: human liver microsomes
T3 sequence (P08684 whole entry): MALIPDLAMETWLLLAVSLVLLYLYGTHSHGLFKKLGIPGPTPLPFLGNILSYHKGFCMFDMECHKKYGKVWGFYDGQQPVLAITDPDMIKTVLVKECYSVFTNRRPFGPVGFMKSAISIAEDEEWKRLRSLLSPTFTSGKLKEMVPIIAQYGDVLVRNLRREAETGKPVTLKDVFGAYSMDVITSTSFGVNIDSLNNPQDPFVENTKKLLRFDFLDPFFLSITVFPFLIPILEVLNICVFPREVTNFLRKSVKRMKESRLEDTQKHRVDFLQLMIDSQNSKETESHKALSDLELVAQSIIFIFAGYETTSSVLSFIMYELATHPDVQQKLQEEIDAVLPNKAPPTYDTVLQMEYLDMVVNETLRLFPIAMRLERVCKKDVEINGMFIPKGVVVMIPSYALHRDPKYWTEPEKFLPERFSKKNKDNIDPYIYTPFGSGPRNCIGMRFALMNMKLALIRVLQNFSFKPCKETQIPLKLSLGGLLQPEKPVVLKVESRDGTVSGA
Protocol: (§1) Hepatocyte stability, plasma protein binding and cytochrome P450 assays were performed using standard procedures. Details can be found in Supplementary Methods. […]
(§2) Cytochrome P450 Inhibition (IC50 Determination) […]
(§3) with human liver microsomes (0.1 to 1 mg/m L) and NADPH (1 mM) in the presence of specific probe substrates at 37°C. Probe substrates and incubation times were: phenacetin (30 µM, 5 min), tolbutamide (120 µM, 60 min), mephenytoi n (25 µM, 60 min) and dextromethorphan (5 µM, 5 min) for CYP1A2, CYP2C9, CYP2C19 and CYP2D6, respectivel y. For CYP3A4, midazolam (2.5 µM, 5 min) andtestosterone (50 µM, 5 min) were used as probe substrates. […]
(§4) isoform. All reactions were terminated b y addition of methanol prior to cent rifugation and addition of internal standard to the supernatants. For CYP2C9, CYP2C19, CYP2D6 and CYP3A4 (midazolam) incubations, the supernat ants were combined for the simultaneous anal ysis o f 4-h ydrox ytol butamide, 4- hydrox ymephenytoin, dextrorphan and 1-hydrox ymidazolam b y LC-MS/MS. For the CYP1A2 and CYP3A4 (testosterone) incubations, the supernatants were anal yzed individuall y for acetaminophen and 6ß-h ydrox ytestosterone b y LC -MS/MS. A decrease i n the formation of the metabolites compared to vehicle control was used to calculate an IC50 value.

CYP1A2 = molecular target: T4, CYP1A2 (Homo sapiens, UniProt P05177); assay: Cytochrome P450 inhibition; format: in vitro ADME; settings: human liver microsomes, tested up to 25 µM
T4 construct: with human liver microsomes; from tissue; host or cells: human liver microsomes
T4 sequence (P05177 whole entry): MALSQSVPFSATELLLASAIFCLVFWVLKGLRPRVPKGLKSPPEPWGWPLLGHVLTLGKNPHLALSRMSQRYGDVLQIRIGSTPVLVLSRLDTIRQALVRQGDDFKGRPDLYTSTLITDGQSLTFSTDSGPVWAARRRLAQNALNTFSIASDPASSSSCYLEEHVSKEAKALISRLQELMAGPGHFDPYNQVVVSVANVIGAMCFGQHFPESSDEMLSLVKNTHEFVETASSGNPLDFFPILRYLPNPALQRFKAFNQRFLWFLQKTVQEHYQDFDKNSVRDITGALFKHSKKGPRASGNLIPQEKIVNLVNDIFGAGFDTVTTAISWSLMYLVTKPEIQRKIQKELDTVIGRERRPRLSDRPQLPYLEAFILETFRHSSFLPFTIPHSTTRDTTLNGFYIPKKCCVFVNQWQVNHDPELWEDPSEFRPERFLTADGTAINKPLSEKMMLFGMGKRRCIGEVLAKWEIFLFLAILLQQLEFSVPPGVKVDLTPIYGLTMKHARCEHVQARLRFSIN
Protocol: as §1, §2, §3, §4

CYP2C9 = molecular target: T5, CYP2C9 (Homo sapiens, UniProt P11712); assay: Cytochrome P450 inhibition; format: in vitro ADME; settings: human liver microsomes, tested up to 25 µM
T5 construct: with human liver microsomes; from tissue; host or cells: human liver microsomes
T5 sequence (P11712 whole entry): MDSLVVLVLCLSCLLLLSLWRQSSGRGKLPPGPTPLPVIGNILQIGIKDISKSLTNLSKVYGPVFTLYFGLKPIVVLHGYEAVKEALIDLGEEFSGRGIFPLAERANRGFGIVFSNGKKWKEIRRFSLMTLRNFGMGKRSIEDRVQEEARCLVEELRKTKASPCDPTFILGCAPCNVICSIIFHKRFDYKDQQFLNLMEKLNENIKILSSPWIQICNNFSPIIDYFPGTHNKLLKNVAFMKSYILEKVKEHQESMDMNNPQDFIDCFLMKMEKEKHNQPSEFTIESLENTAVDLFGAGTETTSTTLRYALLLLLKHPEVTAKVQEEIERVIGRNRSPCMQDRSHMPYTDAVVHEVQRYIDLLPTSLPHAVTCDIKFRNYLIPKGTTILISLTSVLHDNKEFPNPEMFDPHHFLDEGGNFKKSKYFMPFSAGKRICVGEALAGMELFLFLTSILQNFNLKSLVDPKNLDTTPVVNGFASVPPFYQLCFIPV
Protocol: as §1, §2, §3, §4

CYP2C19 = molecular target: T6, CYP2C19 (Homo sapiens, UniProt P33261); assay: Cytochrome P450 inhibition; format: in vitro ADME; settings: human liver microsomes, tested up to 25 µM
T6 construct: with human liver microsomes; from tissue; host or cells: human liver microsomes
T6 sequence (P33261 whole entry): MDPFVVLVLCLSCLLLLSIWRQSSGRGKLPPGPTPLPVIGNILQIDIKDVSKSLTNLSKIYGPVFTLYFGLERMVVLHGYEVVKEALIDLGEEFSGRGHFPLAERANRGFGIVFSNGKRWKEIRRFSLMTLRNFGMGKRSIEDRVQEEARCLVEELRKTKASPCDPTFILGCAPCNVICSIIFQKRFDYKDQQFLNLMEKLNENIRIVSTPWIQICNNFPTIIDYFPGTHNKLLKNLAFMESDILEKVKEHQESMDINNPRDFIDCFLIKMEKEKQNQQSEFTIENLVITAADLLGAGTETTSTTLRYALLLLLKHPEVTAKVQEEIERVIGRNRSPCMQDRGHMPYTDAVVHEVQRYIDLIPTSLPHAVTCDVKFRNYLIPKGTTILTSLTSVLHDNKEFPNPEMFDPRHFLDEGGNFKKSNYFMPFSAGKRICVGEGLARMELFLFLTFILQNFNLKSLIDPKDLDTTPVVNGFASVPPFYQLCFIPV
Protocol: as §1, §2, §3, §4

SMILES: CNC[C@@H](O)COc1ccc(Cl)c(-c2nc(-c3c(C)noc3C)c(C)c(N3CC4(CCN(C(=O)OC)CC4)C3)n2)c1 [EZM2302]
- α value (dual inhibitor study with SAH) (CARM1; varying EZM2302 and SAH): 0.2
- α (noncompetitive fit, substrate competition) (CARM1; varying peptide concentrations): 0.2
- IC50 [1]: 3.3 µM
- inhibition at 10 µM ([1]; 10 μM): 69%
- Tumor growth inhibition (TGI) (RPMI-8226 xenograft; 37.5 mg/kg BID oral, 21 days): 45%
- increase in unmethylated SmB (SmBme0) in tumor (RPMI-8226 xenograft; 37.5 mg/kg BID oral, day 21): 8 fold
- maximal inhibition of aDMA levels in tumor (RPMI-8226 xenograft; 75 mg/kg BID oral, day 21): 65%
- Methylated PABP1 in tumor (RPMI-8226 xenograft; 75 mg/kg and higher dose groups, day 21): undetectable in most animals
- increase in unmethylated SmB (SmBme0) in tumor (RPMI-8226 xenograft; 150 mg/kg BID oral, day 21): 14 fold
- tolerability (RPMI-8226 xenograft; 150 mg/kg and below BID oral, 21 days): well tolerated
- Tumor growth inhibition (TGI) (RPMI-8226 xenograft; 300 mg/kg BID oral, 21 days): 63%
- body weight (RPMI-8226 xenograft; 300 mg/kg BID oral, 21 days): some body weight loss
- weight loss leading to dosing holidays (RPMI-8226 xenograft; 6 of 8 animals in the 300 mg/kg group, holidays of 2 to 8 days): greater than 8%
- day of maximal changes in methylation in tumor tissue (RPMI-8226 xenograft; 150 and 300 mg/kg BID, sampled after 2, 4 and 8 days): 4 days
- CYP3A4 inhibition (CYP3A4): did not inhibit
- CYP1A2 inhibition (CYP1A2): did not inhibit
- CYP2C9 inhibition (CYP2C9): did not inhibit
- CYP2C19 inhibition (CYP2C19): did not inhibit

From publication PMC5740082, “Identification of a CARM1 Inhibitor with Potent In Vitro and In Vivo Activity in Preclinical Models of Multiple Myeloma” (Scientific Reports, 2017)
